Measured values reported in patent publication US20250302846A1, “ANTIBIOTIC COMPOSITION AND METHODS OF USE THEREOF” (THE REGENTS OF THE UNIVERSITY OF COLORADO A BODY CORPORATE, priority 2022, published 2025).
In brackets after ≈: the same amount, converted by molar mass. Like-named read-outs stand apart in the source and are kept apart here.

What was measured:
staphylococcal strains = test: MIC95 quoted for staphylococcal persister and biofilm experiments; assay type: cell-based; settings: read-out: MIC95
Method: A-D) Overnight cultures of the indicated strains were treated at time 0 with DMSO, ciprofloxacin [4 μg/mL], vancomycin [10 μg/mL], or the corresponding MIC95 concentration of D66 (1x MIC95=130 μM, 49 μg/mL). Cultures were plated for enumeration of CFU at time points indicated. Mean and SEM of three biological replicates. E) RAW 264.7 macrophage-like cells and HeLa cells were infected with S. aureus USA300, at MOIs of 0.5 and 2.5, respectively. Cells were treated two hours after infection with DMSO (gray circle on Y axis), or dilutions of D66 from 40 μM. After 8 hours of infection, cells were lysed and plated for enumeration of CFU. Mean and SEM of biological duplicates performed with technical triplicates each with six dilutions of D66. The IC50 value that was calculatable is indicated.
Biofilm formation was monitored after 18 hours in TSB with subinhibitory concentrations of DMSO, rifampin (1x MIC95=0.05 μg/mL), vancomycin (1x MIC95=1 μg/mL), or D66 (1x MIC95=130 μM). A-D) Crystal violet staining for accumulated biofilm mass measured at A595. Mean and […]

RAW 264.7 cells = test: Mitochondrial membrane potential with TMRM; settings: uninfected RAW 264.7 cells; D66 first two hours; CCCP 7 μM
S. Typhimurium = test: Propidium iodide membrane barrier assay; assay type: cell-based; settings: LB with PMB [0.5 μg/mL]; D66 at 2x MIC95; SDS [0.005%] positive control
Method: FIG. 3A-F. D66 rapidly perturbs the bacterial cytoplasmic membrane with minor disruption of barrier function. Mid-log phase S. Typhimurium cells grown in LB with 0.5 μg/mL PMB were used for all experiments. A) Cell membrane potential was monitored with the fluorescent dye DiSC3 (5). Cells were treated at time 0 with DMSO, JD1 [70 μM], or D66. Data were normalized to DMSO at time 0 and corrected for the quenching effect of D66 (FIG. 6A, B) B) Cell membrane permeability was monitored by PI fluorescence. Cells were treated at time 0 with DMSO, SDS [0.005%] or D66. Samples were processed at the time points shown. A one-way ANOVA with a Dunnet's multiple comparison test, * P<0.005. C-F) Growth curves and kill-curves of cells treated at time 0 with either DMSO or D66. Culture aliquots were monitored for OD600 (C, E) or plated for enumeration of CFU (D, F). Data are presented as fold change. Mean and SEM of three biological replicates with technical triplicates are shown in all panels.
Propidium iodide membrane barrier assays: Compound, DMSO, or SDS was added to mid-log phase cells to the desired concentration, and cultures were sampled at 0, 10, 15, 20, 30 and 45 minutes. Five minutes before harvesting, PI [10 μg/mL] (Life Technologies) was added. Cells were pelleted, washed twice, resuspended in PBS, and monitored (ex535/em617 nm) using a BioTek Synergy H1 plate reader.

In the case of `CN[C@H](CC(C)C)C(=O)N[C@H]1C(=O)N[C@@H](CC(N)=O)C(=O)N[C@H]2C(=O)N[C@H]3C(=O)N[C@H](C(=O)N[C@H](C(=O)O)c4cc(O)cc(O)c4-c4cc3ccc4O)[C@H](O)c3ccc(c(Cl)c3)Oc3cc2cc(c3O[C@@H]2O[C@H](CO)[C@@H](O)[C@H](O)[C@H]2O[C@H]2C[C@](C)(N)[C@H](O)[C@H](C)O2)Oc2ccc(cc2Cl)[C@H]1O` [vancomycin, reference compound], the MIC (staphylococcal strains) is reported as 1 µg/mL (≈ 0.69 µM).
Work on `CO[C@H]1/C=C/O[C@@]2(C)Oc3c(C)c(O)c4c(O)c(c(/C=N/N5CCN(C)CC5)c(O)c4c3C2=O)NC(=O)/C(C)=C\C=C\[C@H](C)[C@H](O)[C@@H](C)[C@@H](O)[C@@H](C)[C@H](OC(C)=O)[C@@H]1C` [rifampin, reference compound] yielded an MIC (staphylococcal strains; staphylococcal strains) of 0.05 µg/mL (≈ 0.0608 µM).
In the case of `N#CC(C#N)=NNc1cccc(Cl)c1` [CCCP, carbonyl cyanide m-chlorophenyl hydrazone, reference compound], the “TMRM fluorescence (mitochondrial membrane potential)” value (RAW 264.7 cells) is reported as “decreased TMRM fluorescence”.
For `CCCCCCCCCCCCOS(=O)(=O)[O-].[Na+]` [SDS, reference compound], the “time of treatment after which PI signal increased” value (S. Typhimurium) was 10 min.
